Source: patent US8921363B2, “Derivatives of 1 H-isoindol-3-amine, 1 H-iso-aza-indol-3amine, 3,4-dihydroisoquinolin-1-amine, and 1,4-dihydroisoquinolin-3-amine as beta-secretase inhibitors” (Amgen Inc., priority 2010, dated 2014)
pIC50: −log10 of the molar value.

Key:
[1] = biological target: BACE1 (Homo sapiens, UniProt P56817); test: In vitro enzymatic BACE FRET assay; type: biochemical
Description: In Vitro Enzymatic BACE FRET (fluorescence resonance energy transfer) Assay (Enzyme Assay data in the Example Table I)
The assay buffer used in this screen is 0.05 M acetate, pH 4.2, 10% DMSO final, 100 uM genapol (which is a nonionic detergent, below its Critical Micelle Concentration). […] This assay is effectively started by the addition of FRET substrate (50 nM) and the combination is incubated for one hour. The FRET assay is terminated with by addition of Tris buffer, which raises the pH to neutrality, and the fluorescence is determined. The FRET substrate is a peptide with commercially available fluorophore and quencher, on opposite sides of the BACE cleavage site. Proteolytic cleavage of the FRET substrate releases quenching of fluorescence (excitation […] and […]).

[2] = tested on: Aβ40 in conditioned medium of cells expressing amyloid precursor protein; test: In vitro BACE cell-based assay (HEK cell assay, Aβ40 sandwich ELISA); settings: Homo sapiens, HEK293; average IC50; Aβ40 after 24 h incubation

Chain of BACE1 (P56817 46-501): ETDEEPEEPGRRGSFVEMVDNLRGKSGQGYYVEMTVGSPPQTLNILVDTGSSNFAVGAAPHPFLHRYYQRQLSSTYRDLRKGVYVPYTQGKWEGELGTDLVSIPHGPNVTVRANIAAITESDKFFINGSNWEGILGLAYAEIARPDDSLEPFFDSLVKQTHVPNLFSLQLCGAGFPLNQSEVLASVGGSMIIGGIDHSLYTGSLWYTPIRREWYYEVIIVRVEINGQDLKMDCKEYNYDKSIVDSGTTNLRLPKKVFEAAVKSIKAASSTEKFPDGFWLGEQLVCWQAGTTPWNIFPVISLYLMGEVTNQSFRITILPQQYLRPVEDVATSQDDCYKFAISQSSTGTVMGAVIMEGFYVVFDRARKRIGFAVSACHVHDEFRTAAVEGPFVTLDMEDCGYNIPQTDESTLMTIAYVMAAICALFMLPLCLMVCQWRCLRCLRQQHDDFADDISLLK

Compound NC1=NC2(c3cc(-c4cccnc4F)ccc3Oc3c2cc(Cl)nc3F)c2cccnc21 (stereo not drawn) [Example 17d, 3-chloro-1-fluoro-7-(2-fluoropyridin-3-yl)spiro[chromeno[2,3-c]pyridine-5,5′-pyrrolo[3,4-b]pyridin]-7′-amine 2,2,2-trifluoroacetate] has a pIC50 [1] of 7.06 and a pIC50 [2] of 5.36.
NC1=NC2(c3cc(-c4cccnc4F)ccc3Oc3c2cc(-c2ccnc(F)c2)nc3F)c2ccccc21 (racemic) [Example 5e, 1-fluoro-7-(2-fluoropyridin-3-yl)-3-(2-fluoropyridin-4-yl)spiro[chromeno[2,3-c]pyridine-5,1′-isoindol]-3′-amine] showed a pIC50 [1] of 9.00 and a pIC50 [2] of 8.10.
For NC1=N[C@]2(c3cc(Br)ccc3Oc3c2cc(Cl)nc3F)c2cnccc21 (single isomer, unassigned) [Example 14c-2], the pIC50 [1] was 5.46 and the pIC50 [2] was < 5.00.
With NC1=NC2(c3cc(-c4cccnc4F)ccc3Oc3c2cc(-c2ccnc(F)c2)nc3F)c2ncccc21 (racemic) [Example 15, 1-fluoro-7-(2-fluoropyridin-3-yl)-3-(2-fluoropyridin-4-yl)spiro[chromeno[2,3-c]pyridine-5,7′-pyrrolo[3,4-b]pyridin]-5′-amine] the pIC50 [1] was 9.00 and the pIC50 [2] was 7.96.
With NC1=N[C@@]2(c3cc(-c4cccnc4F)ccc3Oc3cnc(-c4cccnc4F)cc32)c2ccccc21 (single isomer, unassigned) [Example 10-D] the pIC50 [1] was < 5.00 and the pIC50 [2] was < 5.00.
Compound NC1=NC2(c3cc(-c4cccnc4F)ccc3Oc3c2cc(C2=CCCOC2)nc3F)c2ccccc21 (racemic) [Example 7, 3-(5,6-dihydro-2H-pyran-3-yl)-1-fluoro-7-(2-fluoropyridin-3-yl)spiro[chromeno[2,3-c]pyridine-5,1′-isoindol]-3′-amine] has a pIC50 [1] of 9.00 and a pIC50 [2] of 7.89.
Compound NC1=NC2(c3cc(-c4cccnc4F)ccc3Oc3cnc(Cl)cc32)c2ccccc21 (racemic) [Example 10d, 3-chloro-7-(2-fluoropyridin-3-yl)spiro[chromeno[2,3-c]pyridine-5,1′-isoindol]-3′-amine] has a pIC50 [1] of 7.44 and a pIC50 [2] of 6.85.
For NC1=N[C@@]2(c3cc(Br)ccc3Oc3c2cc(Cl)nc3F)c2cccnc21 (single isomer, unassigned) [Example 17c-1], the pIC50 [1] was < 5.00 and the pIC50 [2] was < 5.00.
With NC1=NC2(c3cc(-c4cccnc4F)ccc3Oc3c2cc(N2CCC(F)(F)C2)nc3F)c2ccccc21 (racemic) [Example 9, 3-(3,3-difluoropyrrolidin-1-yl)-1-fluoro-7-(2-fluoropyridin-3-yl)spiro[chromeno[2,3-c]pyridine-5,1′-isoindol]-3′-amine] the pIC50 [1] was 8.28 and the pIC50 [2] was 7.57.
For NC1=N[C@]2(c3cc(-c4cccnc4F)ccc3Oc3c2cc(Cl)nc3F)c2cccnc21 [Example 17d-2, (S)-3-chloro-1-fluoro-7-(2-fluoropyridin-3-yl)spiro[chromeno[2,3-c]pyridine-5,5′-pyrrolo[3,4-b]pyridin]-7′-amine], the pIC50 [1] was 7.80 and the pIC50 [2] was 5.80.
With NC1=NC2(c3ccccc3O1)c1cc(-c3cncnc3)ccc1Oc1cnc(-c3ccnc(F)c3)cc12 (stereo not drawn) [Example 20, 3′-(2-fluoropyridin-4-yl)-7′-(pyrimidin-5-yl)spiro[benzo[c][1,3]oxazine-4,5-chromeno[2,3-c]pyridin]-2-amine] the pIC50 [1] was 8.57 and the pIC50 [2] was 6.97.
For NC1=NC2(c3cc(Br)ccc3Oc3cnc(Cl)cc32)c2ccncc21 (stereo not drawn) [Example 16, 7-bromo-3-chlorospiro[chromeno[2,3-c]pyridine-5,1′-pyrrolo[3,4-c]pyridin]-3′-amine], the pIC50 [1] was 5.04 and the pIC50 [2] was < 5.00.
In the case of NC1=NC2(c3cc(Br)ccc3Oc3cnc(Cl)cc32)c2ccccc21 (racemic) [Example 10c, 7-bromo-3-chlorospiro[chromeno[2,3-c]pyridine-5,1′-isoindol]-3′-amine], the pIC50 [1] was 5.16 and the pIC50 [2] was 7.19.
NC1=N[C@]2(c3cc(-c4cccnc4F)ccc3Oc3c2cc(C2=CCCOC2)nc3F)c2cccnc21 [Example 17-F, (S)-3-(5,6-dihydro-2H-pyran-3-yl)-1-fluoro-7-(2-fluoropyridin-3-yl)spiro[chromeno[2,3-c]pyridine-5,5′-pyrrolo[3,4-b]pyridin]-7′-amine] showed a pIC50 [1] of 9.15 and a pIC50 [2] of 8.52.
Compound CC(C)(C)C#Cc1cc2c(cn1)Oc1ccc(-c3cccnc3F)cc1C21N=C(N)c2ccccc21 (racemic) [Example 13, 3-(3,3-dimethylbut-1-ynyl)-7-(2-fluoropyridin-3-yl)spiro[chromeno[2,3-c]pyridine-5,1′-isoindol]-3′-amine] has a pIC50 [1] of 8.22 and a pIC50 [2] of 7.15.
In the case of NC1=N[C@]2(c3cc(Br)ccc3Oc3c2cc(Cl)nc3F)c2cccnc21 (single isomer, unassigned) [Example 17c-2], the pIC50 [1] was 5.46 and the pIC50 [2] was < 5.00.
NC1=N[C@@]2(c3cc(-c4cccnc4F)ccc3Oc3c2cc(Cl)nc3F)c2cccnc21 [Example 17d-1, (R)-3-chloro-1-fluoro-7-(2-fluoropyridin-3-yl)spiro[chromeno[2,3-c]pyridine-5,5′-pyrrolo[3,4-b]pyridin]-7′-amine] was tested, and the pIC50 [1] was < 5.00 and the pIC50 [2] was < 5.00.
NC1=N[C@]2(c3cc(-c4cccnc4F)ccc3Oc3c2cc(C2=CCCOC2)nc3F)c2cnccc21 [Example 14-E, (S)-3-(5,6-dihydro-2H-pyran-3-yl)-1-fluoro-7-(2-fluoropyridin-3-yl)spiro[chromeno[2,3-c]pyridine-5,3′-pyrrolo[3,4-c]pyridin]-1′-amine] was tested, and the pIC50 [1] was 9.30 and the pIC50 [2] was 8.70.
NC1=N[C@@]2(c3cc(-c4cccnc4F)ccc3Oc3c2cc(C2=CCCOC2)nc3F)c2ccccc21 (single isomer, unassigned) [Example 7-A] was tested, and the pIC50 [1] was 7.11 and the pIC50 [2] was 6.47.
NC1=NC2(c3ccccc3O1)c1cc(-c3cccnc3)ccc1Oc1cnc(-c3ccnc(F)c3)cc12 (stereo not drawn) [Example 23, 3′-(2-fluoropyridin-4-yl)-7′-(pyridin-3-yl)spiro[benzo[e][1,3]oxazine-4,5′-chromeno[2,3-c]pyridin]-2-amine] showed a pIC50 [1] of 8.54 and a pIC50 [2] of 7.01.
With NC1=NC2(c3cc(-c4cccnc4F)ccc3Oc3c2cc(Cl)nc3F)c2cnccc21 (stereo not drawn) [Example 14d, 3-chloro-1-fluoro-7-(2-fluoropyridin-3-yl)spiro[chromeno[2,3-c]pyridine-5,3′-pyrrolo[3,4-c]pyridin]-1′-amine] the pIC50 [1] was 8.43 and the pIC50 [2] was 6.11.
Compound NC1=N[C@]2(c3cc(-c4cccnc4F)ccc3Oc3c2cc(N2CCOCC2)nc3F)c2cccnc21 [Example 17-G, (S)-1-fluoro-7-(2-fluoropyridin-3-yl)-3-morpholinospiro[chromeno[2,3-c]pyridine-5,5′-pyrrolo[3,4-b]pyridin]-7′-amine] has a pIC50 [1] of 9.00 and a pIC50 [2] of 8.70.
With NC1=NC2(c3cc(-c4cccnc4F)ccc3Oc3cnc(C4CCOCC4)cc32)c2ccccc21 (racemic) [Example 12, 7-(2-fluoropyridin-3-yl)-3-(tetrahydro-2H-pyran-4-yl)spiro[chromeno[2,3-c]pyridine-5,1′-isoindol]-3′-amine] the pIC50 [1] was 8.40 and the pIC50 [2] was 7.89.
For NC1=NC2(c3cc(Br)ccc3Oc3c2cc(Cl)nc3F)c2cccnc21 (stereo not drawn) [Example 17c, 7-bromo-3-chloro-1-fluorospiro[chromeno[2,3-c]pyridine-5,5′-pyrrolo[3,4-b]pyridin]-7′-amine], the pIC50 [1] was < 5.00 and the pIC50 [2] was < 5.00.
For NC1=NC2(c3cc(Br)ccc3Oc3c2cc(Cl)nc3F)c2cnccc21 (stereo not drawn) [Example 14c, 7-bromo-3-chloro-1-fluorospiro[chromeno[2,3-c]pyridine-5,3′-pyrrolo[3,4-c]pyridin]-1′-amine], the pIC50 [1] was 5.34 and the pIC50 [2] was < 5.00.
In the case of NC1=N[C@]2(c3cc(-c4cccnc4F)ccc3Oc3c2cc(Cl)nc3F)c2cnccc21 [Example 14d-2, (S)-3-chloro-1-fluoro-7-(2-fluoropyridin-3-yl)spiro[chromeno[2,3-c]pyridine-5,3′-pyrrolo[3,4-c]pyridin]-1′-amine], the pIC50 [1] was 8.60 and the pIC50 [2] was 7.45.
NC1=NC2(c3cc(-c4cccnc4F)ccc3Oc3c2cc(Cl)nc3F)c2ccccc21 (stereo not drawn) [Example 5d, 3-chloro-1-fluoro-7-(2-fluoropyridin-3-yl)spiro[chromeno[2,3-c]pyridine-5,1′-isoindol]-3′-amine] showed a pIC50 [1] of 8.22 and a pIC50 [2] of 6.65.
NC1=NC2(c3cc(-c4cccnc4F)ccc3Oc3cnc(-c4ccnc(F)c4)cc32)c2cccnc2O1 (racemic) [Example 24, 7-(2-fluoropyridin-3-yl)-3-(2-fluoropyridin-4-yl)spiro[chromeno[2,3-c]pyridine-5,4-pyrido[3,2-e][1,3]oxazin]-2′-amine] was tested, and the pIC50 [1] was 8.74 and the pIC50 [2] was 6.49.
With NC1=N[C@@]2(c3cc(-c4cccnc4F)ccc3Oc3c2cc(Cl)nc3F)c2cnccc21 [Example 14d-1, (R)-3-chloro-1-fluoro-7-(2-fluoropyridin-3-yl)spiro[chromeno[2,3-c]pyridine-5,3′-pyrrolo[3,4-c]pyridin]-1′-amine] the pIC50 [1] was 5.18 and the pIC50 [2] was < 5.00.
In the case of NC1=N[C@@]2(c3cc(-c4cccnc4F)ccc3Oc3c2cc(-c2ccnc(F)c2)nc3F)c2ccccc21 (single isomer, unassigned) [Example 5-A], the pIC50 [1] was 7.74 and the pIC50 [2] was 5.73.
Work on NC1=N[C@]2(c3cc(-c4cccnc4F)ccc3Oc3c2cc(-c2ccnc(F)c2)nc3F)c2ccccc21 (single isomer, unassigned) [Example 5-B] yielded a pIC50 [1] of 9.22 and a pIC50 [2] of 7.96.
For NC1=NC2(c3ccccc3O1)c1cc(-c3cccnc3F)ccc1Oc1cnc(-c3ccnc(F)c3)cc12 (stereo not drawn) [Example 19, 7′-(2-fluoropyridin-3-yl)-3′-(2-fluoropyridin-4-yl)spiro[benzo[e][1,3]oxazine-4,5′-chromeno[2,3-c]pyridin]-2-amine], the pIC50 [1] was 8.70.
